The results in this text go back to ChEMBL document CHEMBL5303304, “EUbOPEN Chemogenomics Library - IncuCyte” (2023).

What all share (format): toxicity, cell-based
For one data set, the system named is U2OS. Description: Incucyte cell viability with U2OS. To be noted: human, 10 µM, compound concentration 10 uM.
The next data set has as its system HEK-293T. The data set is described as follows: Incucyte cell viability with HEK293T. To be noted: human, 10 µM, compound concentration 10 uM.
The next data set deals with Fibroblast. The data set is described as follows: Incucyte cell viability with human fibroblast. To be noted: 10 µM, compound concentration 10 uM.
Also: unitless GR value; below 1 slowed growth and below 0 cell loss.

Turning to `Nc1ncnc2c1c(COc1cccc(Cl)c1)nn2C1CCOCC1`, the “Growth Rate” value in the data set on U2OS (6 h, replicate number 1) worked out at 0.51; in the data set with U2OS (12 h, replicate number 1), 0.63; in the data set on U2OS (18 h, replicate number 1), 0.81; in the data set with U2OS (24 h, replicate number 1), 0.83; in the data set with HEK-293T (6 h, replicate number 1), 0.75; in the data set on HEK-293T (6 h, replicate number 2), 0.59. Besides, the “Growth Rate” value in the data set on HEK-293T (12 h, replicate number 2) is recorded as 0.61; in the data set with HEK-293T (18 h, replicate number 1) it was 0.83; in the data set on HEK-293T (18 h, replicate number 2), 0.5; in the data set on HEK-293T (24 h, replicate number 1), 0.79; with HEK-293T (24 h, replicate number 2), 0.37; in the data set on Fibroblast (0 h, replicate number 2), -0.61. The “Growth Rate” value in the data set with Fibroblast (6 h, replicate number 1) came out at 0.82; in the data set with Fibroblast (6 h, replicate number 2), 0.47; in the data set with Fibroblast (12 h, replicate number 1), 0.9; in the data set on Fibroblast (12 h, replicate number 2), 0.6; in the data set with Fibroblast (18 h, replicate number 2), 0.74; in the data set on Fibroblast (24 h, replicate number 2), 0.92.
For the compound `CCCCCCCN(CCc1ccc(SC(C)(C)C(=O)O)cc1)C(=O)Nc1ccc(F)cc1F` [GSK-9578], the “Growth Rate” value in the data set on U2OS (6 h, replicate number 1) is given as 0; with U2OS (12 h, replicate number 1) it was 0.86; with HEK-293T (0 h, replicate number 1), -0.27; in the data set on HEK-293T (0 h, replicate number 2) it was -0.91; in the data set with HEK-293T (6 h, replicate number 2), 0.66; in the data set on HEK-293T (12 h, replicate number 2) it was 0.73. Further, the “Growth Rate” value with HEK-293T (18 h, replicate number 2) came to 0.5; in the data set on HEK-293T (24 h, replicate number 2) it was 0.55; in the data set with Fibroblast (0 h, replicate number 1) it was 0.58; in the data set with Fibroblast (6 h, replicate number 1), 0.88; in the data set with Fibroblast (6 h, replicate number 2), 0.55; in the data set with Fibroblast (12 h, replicate number 1) it was 0.69. In addition, the “Growth Rate” value in the data set on Fibroblast (12 h, replicate number 2) is on record as 0.91; in the data set with Fibroblast (18 h, replicate number 1), 0.7; in the data set on Fibroblast (24 h, replicate number 1), 0.88.
`Cn1cnc(Cn2ccc3ccc(CNCc4[nH]c5ccccc5c4[C@H]4NC(=O)c5ccc(O)cc54)cc32)c1`: the “Growth Rate” value was found to be 0.28 with U2OS (0 h, replicate number 2); 0.88 in the data set on U2OS (6 h, replicate number 1); 0.3 in the data set on U2OS (6 h, replicate number 2); 0.98 in the data set on U2OS (12 h, replicate number 1); 0.81 with U2OS (12 h, replicate number 2); 0.67 in the data set with U2OS (18 h, replicate number 2). Also, the “Growth Rate” value in the data set on U2OS (24 h, replicate number 1) was 0.91; in the data set on U2OS (24 h, replicate number 2), 0.9; in the data set on HEK-293T (0 h, replicate number 1), -0.01; in the data set with Fibroblast (0 h, replicate number 1), -0.98; in the data set on Fibroblast (0 h, replicate number 2) it was -0.84; in the data set with Fibroblast (6 h, replicate number 1), 0.19. Also, the “Growth Rate” value worked out at 0.48 with Fibroblast (6 h, replicate number 2); 0.68 with Fibroblast (18 h, replicate number 1); 0.8 in the data set with Fibroblast (18 h, replicate number 2).
On to `Cc1cc2c(-c3ccco3)cnc(N[C@H]3CCN(C)C[C@@H]3C(=O)NC3CCCCC3)c2[nH]c1=O` [GSK791], for which the “Growth Rate” value in the data set on U2OS (0 h, replicate number 1) is -0.05; with U2OS (12 h, replicate number 1) it was -0.81; in the data set with HEK-293T (0 h, replicate number 2), -0.74; with Fibroblast (6 h, replicate number 1) it was 0.66; in the data set on Fibroblast (6 h, replicate number 2), 0.72; in the data set on Fibroblast (12 h, replicate number 1), 0.82.
On to `COc1ccccc1C(=O)Nc1cccc(NC(=O)c2cccc(C)c2)c1`, for which the “Growth Rate” value was found to be 0.17 with U2OS (6 h, replicate number 1); 0.68 with U2OS (6 h, replicate number 2); 0.78 in the data set with U2OS (12 h, replicate number 1); 0.75 in the data set with U2OS (12 h, replicate number 2); 0.83 in the data set with U2OS (18 h, replicate number 1); 0.84 in the data set on U2OS (18 h, replicate number 2). For the same compound, the “Growth Rate” value in the data set on U2OS (24 h, replicate number 1) is recorded as 0.88; with HEK-293T (6 h, replicate number 2), 0.58; with HEK-293T (12 h, replicate number 2), 0.91; in the data set on Fibroblast (6 h, replicate number 1), 0.45; in the data set with Fibroblast (6 h, replicate number 2), -1; in the data set on Fibroblast (12 h, replicate number 2) it was 0.94. Also, the “Growth Rate” value in the data set with Fibroblast (18 h, replicate number 1) was determined as 0.17; with Fibroblast (18 h, replicate number 2), 0.98; in the data set with Fibroblast (24 h, replicate number 2) it was 0.85.
With `Nc1ncnc2[nH]c(-c3ccccc3)nc12`, the “Growth Rate” value is -1 in the data set on U2OS (0 h, replicate number 1); 0.55 with U2OS (0 h, replicate number 2); 0.92 with U2OS (6 h, replicate number 2); 0.9 with U2OS (12 h, replicate number 2); 0.95 in the data set on U2OS (18 h, replicate number 2); 0.83 in the data set with HEK-293T (6 h, replicate number 1). The “Growth Rate” value with HEK-293T (6 h, replicate number 2) worked out at 0.23; in the data set with HEK-293T (12 h, replicate number 1) it was 0.87; in the data set with HEK-293T (12 h, replicate number 2) it was 0.55; in the data set with HEK-293T (18 h, replicate number 1), 0.8; with HEK-293T (18 h, replicate number 2), 0.68; in the data set with HEK-293T (24 h, replicate number 1), 0.85. Besides, the “Growth Rate” value came to 0.78 with HEK-293T (24 h, replicate number 2); 0.44 with Fibroblast (0 h, replicate number 2); 0.95 in the data set with Fibroblast (6 h, replicate number 2); 0.88 in the data set on Fibroblast (12 h, replicate number 1); 0.9 in the data set with Fibroblast (12 h, replicate number 2).
For `CC(C)c1cnc(NC(=O)Cc2ccccc2)s1`, the “Growth Rate” value in the data set with U2OS (0 h, replicate number 2) is listed as 0.72; in the data set on U2OS (6 h, replicate number 1) it was 0.54; with U2OS (12 h, replicate number 1), 0.87; in the data set on U2OS (12 h, replicate number 2), 0.72; in the data set with U2OS (18 h, replicate number 1), 0.77; with U2OS (18 h, replicate number 2), 0.97. The “Growth Rate” value with U2OS (24 h, replicate number 1) is listed as 0.89; with U2OS (24 h, replicate number 2) it was 0.77; with HEK-293T (0 h, replicate number 2) it was 1; in the data set with HEK-293T (6 h, replicate number 1), 0.76; in the data set with HEK-293T (6 h, replicate number 2), 0.51; in the data set on HEK-293T (12 h, replicate number 1), 0.86. Further, the “Growth Rate” value in the data set with HEK-293T (12 h, replicate number 2) is 0.69; with HEK-293T (18 h, replicate number 1), 0.8; in the data set with HEK-293T (18 h, replicate number 2), 0.68; in the data set with HEK-293T (24 h, replicate number 1), 0.73; in the data set on HEK-293T (24 h, replicate number 2) it was 0.69; with Fibroblast (0 h, replicate number 1) it was -0.99. In addition, the “Growth Rate” value in the data set on Fibroblast (6 h, replicate number 2) is listed as 0.95; in the data set on Fibroblast (18 h, replicate number 2), 1; in the data set with Fibroblast (24 h, replicate number 1), 0.92; with Fibroblast (24 h, replicate number 2), 0.99.
Turning to `COc1cc(-c2cn(C)c(=O)c3cnccc23)c(OC)cc1CN(C)C`, the “Growth Rate” value with U2OS (0 h, replicate number 1) is on record as 0.29; with U2OS (6 h, replicate number 1), 0.38; with U2OS (12 h, replicate number 1) it was 0.8; in the data set with U2OS (24 h, replicate number 1), 0.97; in the data set on HEK-293T (0 h, replicate number 1), 0.44; with HEK-293T (6 h, replicate number 2), 0.24. Moreover, the “Growth Rate” value was 0.4 in the data set on HEK-293T (12 h, replicate number 2); 0.77 in the data set on HEK-293T (18 h, replicate number 1); 0.68 in the data set with HEK-293T (18 h, replicate number 2); 0.68 with HEK-293T (24 h, replicate number 1); 0.77 in the data set with HEK-293T (24 h, replicate number 2); 0.79 in the data set with Fibroblast (6 h, replicate number 1). The “Growth Rate” value in the data set with Fibroblast (6 h, replicate number 2) was determined as 0.69; in the data set on Fibroblast (12 h, replicate number 1) it was 0.84; in the data set on Fibroblast (12 h, replicate number 2) it was 0.23; in the data set on Fibroblast (18 h, replicate number 1) it was 0.8; with Fibroblast (18 h, replicate number 2) it was 0.53; in the data set on Fibroblast (24 h, replicate number 1) it was 0.8. Moreover, the “Growth Rate” value with Fibroblast (24 h, replicate number 2) is listed as 0.5.
In the case of `Cc1cccc([C@H]2CC[C@@H](N3CCN(c4cccnc4)CC3)CC2)c1.O=C(O)C(F)(F)F.O=C(O)C(F)(F)F`, the “Growth Rate” value is on record as -0.63 in the data set on U2OS (0 h, replicate number 2); 1 in the data set with U2OS (12 h, replicate number 1); 0.97 in the data set with U2OS (18 h, replicate number 1); 0.93 in the data set with U2OS (24 h, replicate number 1); 0.98 with HEK-293T (0 h, replicate number 1); 0.45 in the data set with HEK-293T (6 h, replicate number 2). In addition, the “Growth Rate” value was 0.66 in the data set on HEK-293T (12 h, replicate number 2); 0.73 in the data set with HEK-293T (18 h, replicate number 2); 0.79 in the data set on HEK-293T (24 h, replicate number 2); -0.88 in the data set on Fibroblast (0 h, replicate number 2); -0.37 in the data set on Fibroblast (6 h, replicate number 1); -0.32 with Fibroblast (6 h, replicate number 2). The “Growth Rate” value with Fibroblast (24 h, replicate number 1) is listed as 0.58; in the data set with Fibroblast (24 h, replicate number 2), 0.94.
